Results as given in patent publication US9221900B2, “Methods for identifying safe and functional humanized antibodies” (AC IMMUNE S.A., priority 2010, dated 2015).

Tests used:
[1] = tested on: Aβ plaques in the brains of transgenic mice expressing hAPP; experiment: Immunostaining of Aβ plaques in brain sections of hAPP transgenic mice; assay type: binding; conditions: hAPP transgenic mouse brain sections
From the text: FIG. 1 provides graphs and immunohistochemical images corresponding to the experiments described in Example 6.1 and 6.2. […] As a control, an anti-Aβ IgG monoclonal antibody with a N-terminal epitope was used. […] The mean (±SEM) of two assays is shown.

[2] = tested on: amyloid plaques in human AD brain sections; experiment: Immunohistochemistry of amyloid plaques in human AD brain sections; assay type: binding
From the text: Paraffin mounted temporal lobe brain sections (20 μm) from an AD patient and from an age-matched non-AD control (Tissue Solutions, Clydebank, UK) were used for immunohistochemistry staining. […] A goat-anti-human biotinylated IgG was used as a secondary antibody. Staining was done with diaminobenzidin (Dako, Glostrup, Denmark) and mounting using Eukitt mounting medium. Images were acquired on a LSM 700 inverted microscope from Zeiss.

Aβ1-42 = Aβ1-42 (Homo sapiens, UniProt P05067); experiment: Aβ1-42 self-assembly assay not relying on ThT fluorescence; assay type: biochemical; conditions: labeled Aβ1-42 onto immobilized un-labeled Aβ1-42
Sequence of Aβ1-42 (P05067 672-713 limits assumed): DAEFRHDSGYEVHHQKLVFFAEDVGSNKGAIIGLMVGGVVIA

[3] = biological target: Aβ1-42 binding to recombinant human ApoE4 (Homo sapiens, UniProt P05067); experiment: ELISA of Aβ1-42 binding to recombinant human ApoE4; assay type: biochemical; conditions: saturating concentrations of ApoE4 and Aβ1-42
Sequence of Aβ1-42 binding to recombinant human ApoE4 (P05067 672-713 limits assumed): as above
From the text: FIG. 9 provides a graph corresponding to the experiments described in Example 6.2. […] Percent inhibition of signal without an IgG monoclonal antibody is shown. […] The interaction site of ApoE4 with Aβ1-42 requires amino acids 18 to 28 (Strittmatter et al., 1993).

[4] = tested on: mouse embryonic cortical neurons; experiment: Aβ1-42-induced degeneration of embryonic cortical neurons, TuJ1 immunofluorescence; assay type: cell-based; conditions: Aβ1-42 with MABT for four days
Description: FIG. 2 provides graphs and immunocytochemical images corresponding to the experiments described in Example 6.3. […] An MTT assay was used to determine cell viability as described in the Methods section. The means (±SEM) of five independent experiments are shown. *P<0.05, **P<0.01. […] Neurotoxicity following extended Aβ1-42 oligomer treatment was tested by morphological analyses (C).
A non-specific IgG monoclonal antibody was used as a control in all experiments.
The cytotoxicity of Aβ1-42 oligomers was tested on mixed cortical cultures at DIV 5. All antibodies, at a final concentration of 100 μg/mL, were co-incubated with Aβ1-42 oligomers for 30 min in serum-free cell culture medium at 37° C. before treatment of cells. For some experiments, mixed cortical cultures were pre-treated for 1 h with 1 μM SB239063, a potent second-generation p38 inhibitor, before treatment with Aβ1-42 oligomers. […] Briefly, for the last 3 h of treatment, cells grown in 96-well plates (Costar) were incubated with the MTT dye solution and the generation of a blue formazan product was measured by reading absorbance at 570 and 690 nm using a plate reader (Tecan). […] A FITC-labeled secondary antibody was used to visualize microtubules using fluorescence microscopy.

[5] = tested on: mixed cortical cells from P1 rats; experiment: Immunofluorescence of Aβ1-42 oligomer binding to neurons; assay type: cell-based, rat; conditions: co-treatment, 30 min to 18 h
Description: FIG. 3 provides graphs and immunocytochemical images corresponding to the experiments described in Example 6.4. Aβ1-42 oligomer binding to neurites was reduced by the anti-Aβ IgG4 monoclonal antibody. […] Green indicates staining with TuJ1, red indicates labeling with anti-Aβ (clone 6E10), and blue indicates staining with DAPI. […] Quantitative measures of fluorescence are shown for 30 min treatment and 18 h treatment (B). Mean results (±SEM) of two experiments are shown. […] Cortical cultures from P1 rats were treated as described for (A), except that Aβ1-42 tagged with HyLite Fluor-488 was used (C). Aβ1-42-labeled samples are shown in the upper panel and DAPI-stained samples are shown in the lower panel. One representative experiment is shown. Aβ1-42 fluorescence was quantified, with the mean (±SD) of the two independent experiments shown (D). […]
Aβ peptides, especially aggregation intermediates (Bateman et al., 2007), are known to associate with various lipids and proteins present in cell membranes. […] This effect was readily apparent as early as 30 min (FIGS. 3A and 3B) and remained for at least 18 h of treatment (FIG. 3B).
Cells were grown on a glass coverslips. […] Fluorescence intensity was measured in cell bodies delineated by saturated epifluorescence pictures. […]

For “MABT: humanized anti-Aβ monoclonal antibody of IgG4 isotype, affinity matured and humanized form of mouse mMABT”, the “binding to Aβ plaques” value [1] was “immunodecorated”, the “binding to amyloid plaques” value [2] was “immunodecorated” and the Aβ1-42 self-assembly (Aβ1-42) was “prevented the self-assembly of Aβ1-42 in a dose-dependent manner”. For the same substance, the “inhibition of the Aβ1-42 and ApoE4 interaction” value [3] was “over 80%”, the “neuronal morphology after Aβ1-42 treatment” value [4] was “appeared similar to control cells” and the “interaction of Aβ1-42 oligomers with neurons” value [5] was “blocked the interaction of Aβ1-42 oligomers with neurons”.
